According to PMC7865522, “Analyzing Kinase Similarity in Small Molecule and Protein Structural Space to Explore the Limits of Multi-Target Screening” (Molecules, 2021):

Experiments:
PI3K [1] = biological target: T1, PI3K (Homo sapiens, UniProt P42336); experiment: Eurofins in vitro kinase inhibition assay (HTRF, PIP3 displacement); type: biochemical; set-up: purchased Eurofins Cerep (contract assay); conditions: compound 20 µM; mean (SD); above 50% significant, 25-50% weak
Method: (§1) Kinase inhibition assays for EGFR, ErbB2, PI3K and BRAF were carried out by Eurofins Cerep following the protocols of Weber et al. (EGFR), Quian et al. (ErbB2), Sinnamon et al. (PI3K) and Kupcho et al. (BRAF). Briefly, except for PI3K, compounds were incubated with the respective kinase, ATP, and a substrate analog, and the effect of each compound on phosphorylation was measured. In the case of PI3K, the displacement of biotinylated PIP3 from a PIP3-binding complex by unlabelled PIP3 (produced from PIP2 by PI3K) was measured by Homogeneous Time Resolved Fluorescence (HTRF).
(§2) Finally, inhibition of the respective kinases is calculated as the percentage inhibition of control activity.
(§3) Table S3. Experimental results from the Euroﬁns assay. Inhibition of four kinases (EGFR, PI3K, ErbB2, BRAF) was measured at compound concentrations of 20 µM. Inhibition was calculated as % inhibition of control activity. According to CRO, values above 50% inhibition represent signiﬁcant inhibition, values above 25% weak inhibition effect and values below 25% as well as negative values are usually not signiﬁcant. Results are reported in mean (SD) format. […]
(§4) a Compound interfered with assay readout.

EGFR [2] = biological target: T2, EGFR (Homo sapiens, UniProt P00533); experiment: Eurofins in vitro kinase inhibition assay; type: biochemical; conditions: compound 20 µM; mean (SD); above 50% significant, 25-50% weak
T2 construct: purchased DiscoverX (KINOMEscan service); host or cells: E. coli BL21-derived host (T7 phage) or HEK-293
T2 sequence (P00533 25-1210): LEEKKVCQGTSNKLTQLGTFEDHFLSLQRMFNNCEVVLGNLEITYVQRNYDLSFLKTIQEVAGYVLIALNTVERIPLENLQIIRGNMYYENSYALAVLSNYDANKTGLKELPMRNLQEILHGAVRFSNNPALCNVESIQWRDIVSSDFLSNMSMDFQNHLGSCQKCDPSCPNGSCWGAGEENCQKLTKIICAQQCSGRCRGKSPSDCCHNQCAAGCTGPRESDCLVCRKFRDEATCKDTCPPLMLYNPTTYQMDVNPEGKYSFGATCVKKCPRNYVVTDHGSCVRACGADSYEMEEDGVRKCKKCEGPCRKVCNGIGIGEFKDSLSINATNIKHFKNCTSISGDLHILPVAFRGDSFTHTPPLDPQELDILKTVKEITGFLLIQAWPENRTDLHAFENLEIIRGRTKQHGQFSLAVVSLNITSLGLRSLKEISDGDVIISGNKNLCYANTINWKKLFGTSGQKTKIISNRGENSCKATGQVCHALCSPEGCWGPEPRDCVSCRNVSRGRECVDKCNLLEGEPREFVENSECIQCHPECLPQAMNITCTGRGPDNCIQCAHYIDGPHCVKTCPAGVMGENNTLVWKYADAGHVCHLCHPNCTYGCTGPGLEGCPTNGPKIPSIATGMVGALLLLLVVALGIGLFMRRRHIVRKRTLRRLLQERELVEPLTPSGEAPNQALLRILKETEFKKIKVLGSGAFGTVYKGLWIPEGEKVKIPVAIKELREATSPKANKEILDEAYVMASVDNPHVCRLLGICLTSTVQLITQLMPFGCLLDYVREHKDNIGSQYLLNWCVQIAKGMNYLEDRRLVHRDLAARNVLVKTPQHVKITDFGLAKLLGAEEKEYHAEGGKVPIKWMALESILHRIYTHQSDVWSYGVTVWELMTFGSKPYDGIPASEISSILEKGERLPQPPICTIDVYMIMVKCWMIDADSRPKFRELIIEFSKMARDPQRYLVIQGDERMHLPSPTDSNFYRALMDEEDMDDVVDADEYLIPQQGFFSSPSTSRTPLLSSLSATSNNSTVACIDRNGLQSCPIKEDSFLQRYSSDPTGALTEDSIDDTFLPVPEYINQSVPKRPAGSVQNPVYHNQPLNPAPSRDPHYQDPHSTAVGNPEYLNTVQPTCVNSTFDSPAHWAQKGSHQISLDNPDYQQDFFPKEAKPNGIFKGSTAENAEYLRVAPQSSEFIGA
Method: as §1, §2, §3, §4

BRAF [3] = biological target: T3, BRAF (Homo sapiens, UniProt P15056); experiment: Eurofins in vitro kinase inhibition assay; type: biochemical; conditions: compound 20 µM; mean (SD); above 50% significant, 25-50% weak
T3 construct: purchased DiscoverX (KINOMEscan service); host or cells: E. coli BL21-derived host (T7 phage) or HEK-293
T3 sequence (P15056 whole entry): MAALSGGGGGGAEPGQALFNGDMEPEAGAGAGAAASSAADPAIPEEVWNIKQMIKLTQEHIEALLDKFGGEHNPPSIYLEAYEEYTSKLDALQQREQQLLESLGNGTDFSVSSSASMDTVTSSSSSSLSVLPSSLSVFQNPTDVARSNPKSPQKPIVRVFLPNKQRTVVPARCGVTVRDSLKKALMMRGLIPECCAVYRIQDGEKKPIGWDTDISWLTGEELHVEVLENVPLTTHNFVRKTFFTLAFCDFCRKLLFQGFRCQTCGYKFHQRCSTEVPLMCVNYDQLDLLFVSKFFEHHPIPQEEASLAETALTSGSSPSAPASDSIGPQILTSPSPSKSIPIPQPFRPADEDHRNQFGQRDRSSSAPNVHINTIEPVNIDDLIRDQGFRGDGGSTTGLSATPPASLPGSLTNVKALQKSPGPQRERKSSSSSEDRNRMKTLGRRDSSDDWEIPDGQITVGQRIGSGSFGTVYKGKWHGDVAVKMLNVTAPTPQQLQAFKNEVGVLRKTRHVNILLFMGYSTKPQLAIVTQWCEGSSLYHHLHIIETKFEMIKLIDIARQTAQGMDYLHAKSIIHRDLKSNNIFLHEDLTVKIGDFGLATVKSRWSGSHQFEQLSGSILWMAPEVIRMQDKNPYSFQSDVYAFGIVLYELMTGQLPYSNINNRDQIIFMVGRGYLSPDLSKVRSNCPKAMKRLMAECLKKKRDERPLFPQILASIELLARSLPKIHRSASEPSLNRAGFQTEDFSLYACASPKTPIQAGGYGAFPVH
Method: as §1, §2, §3, §4

ErbB2 [4] = biological target: T4, ErbB2 (Homo sapiens, UniProt P04626); experiment: Eurofins in vitro kinase inhibition assay; type: biochemical; conditions: compound 20 µM; mean (SD); above 50% significant, 25-50% weak
T4 construct: purchased DiscoverX (KINOMEscan service); host or cells: E. coli BL21-derived host (T7 phage) or HEK-293
Method: as §1, §2, §3, §4

PI3K [5] = biological target: T1, PI3K; experiment: DiscoverX KINOMEscan competition binding assay; set-up: purchased DiscoverX (KINOMEscan service); host or cells: E. coli BL21-derived host (T7 phage) or HEK-293; conditions: compound 10 µM; lower values = higher affinity; below 35% = significant binding
Method: (§5) Ligand binding experiments for the molecules selected from Profiles 1 and 2 towards nine kinases (EGFR, ErbB2, LCK, CDK2, BRAF, MET, p38α, PI3K and VEGFR2) and for molecules selected from Profiles 3 and 4 towards four kinases (EGFR, ErbB2, BRAF and VEGFR2) were carried out by DiscoverX using the supplied protocol as described in the Supplementary Materials. Briefly, ligand affinity was measured by competition with a resin-bound standard ligand and washed-off kinase concentration was determined via qPCR.
(§6) Summarizing, binding of a compound to a kinase was tested in comparison to a control compound (see Table S2). […]
(§7) 1.1. DiscoverX kinase assay
(§8) For most assays, kinase-tagged T7 phage strains were grown in parallel in 24-well blocks in an E.coli host derived from the BL21 strain. E.coli were grown to log-phase and infected with T7 phage from a frozen stock (multiplicity of infection = 0.4) and incubated with shaking at 32°C until lysis (90-150 minutes). The lysates were centrifuged (6,000 x g) and ﬁltered (0.2µm) to remove cell debris.
(§9) The remaining kinases were produced in HEK-293 cells and subsequently tagged with DNA for qPCR detection. Streptavidin-coated magnetic beads were treated with biotinylated small molecule ligands for 30 minutes at room temperature to generate afﬁnity resins for the kinases. The liganded beads were blocked with excess biotin and washed with blocking buffer (SeaBlock [Pierce], 1% BSA, 0.05% Tween 20, 1 mM DTT) to remove unbound ligands and to reduce non-speciﬁc phage binding. Binding reactions were assembled by combining kinases, liganded afﬁnity beads, and test compounds in 1x binding buffer (20% SeaBlock, 0.17x PBS, 0.05% Tween 20, 6 mM DTT). Test compounds were prepared as 40x stocks in 100% DMSO and directly diluted into the assay. All reactions were performed in polypropylene 384-well plates in a ﬁnal volume of 0.02 ml. The assay plates were incubated at room temperature with shaking for 1 hour and the afﬁnity beads were washed with wash buffer (1x PBS, 0.05% Tween 20). The beads were then re-suspended in elution buffer (1x PBS, 0.05% Tween 20, 0.5 µM non-biotinylated afﬁnity ligand) and incubated at room temperature with shaking for 30 minutes. The kinase concentration in the eluates was measured by qPCR. […]
(§10) Table S2. Experimental % control values from the DiscoverX kinase assay. Compounds were tested against the nine kinases EGFR, ErbB2, LCK, CDK2, BRAF, MET, p38α, PI3K and VEGFR2, unless otherwise stated. Binding of kinase and compound were tested at a compound concentration of 10 µM and in comparison to a control compound. Lower values indicate a higher afﬁnity of the compound to the protein and values below 35% indicate signiﬁcant binding according to information of the CRO. […]
(§11) a Compounds were only tested against four kinases (EGFR, ErbB2, BRAF and VEGFR2). b Compound was selected independently from two docking proﬁles and tested separately during

LCK = biological target: T5, LCK (Homo sapiens, UniProt P06239); experiment: DiscoverX KINOMEscan competition binding assay; conditions: compound 10 µM; lower values = higher affinity; below 35% = significant binding
T5 construct: purchased DiscoverX (KINOMEscan service); host or cells: E. coli BL21-derived host (T7 phage) or HEK-293
Method: as §5, §6, §7, §8, §9, §10, §11

p38α = biological target: T6, p38α (Homo sapiens, UniProt Q16539); experiment: DiscoverX KINOMEscan competition binding assay; conditions: compound 10 µM; lower values = higher affinity; below 35% = significant binding
T6 construct: purchased DiscoverX (KINOMEscan service); host or cells: E. coli BL21-derived host (T7 phage) or HEK-293
T6 sequence (Q16539 whole entry): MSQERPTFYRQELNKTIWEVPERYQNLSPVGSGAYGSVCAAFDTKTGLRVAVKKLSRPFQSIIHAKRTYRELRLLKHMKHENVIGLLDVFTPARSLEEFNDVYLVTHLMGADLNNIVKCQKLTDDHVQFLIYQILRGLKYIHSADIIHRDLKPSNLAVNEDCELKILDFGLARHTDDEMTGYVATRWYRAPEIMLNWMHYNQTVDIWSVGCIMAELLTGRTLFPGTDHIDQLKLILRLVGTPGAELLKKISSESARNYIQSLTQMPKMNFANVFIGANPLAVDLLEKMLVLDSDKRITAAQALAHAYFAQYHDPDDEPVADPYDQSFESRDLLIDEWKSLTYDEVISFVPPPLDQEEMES
Method: as §5, §6, §7, §8, §9, §10, §11

MET = biological target: T7, MET (Homo sapiens, UniProt P08581); experiment: DiscoverX KINOMEscan competition binding assay; conditions: compound 10 µM; lower values = higher affinity; below 35% = significant binding
T7 construct: purchased DiscoverX (KINOMEscan service); host or cells: E. coli BL21-derived host (T7 phage) or HEK-293
T7 sequence (P08581 25-1390): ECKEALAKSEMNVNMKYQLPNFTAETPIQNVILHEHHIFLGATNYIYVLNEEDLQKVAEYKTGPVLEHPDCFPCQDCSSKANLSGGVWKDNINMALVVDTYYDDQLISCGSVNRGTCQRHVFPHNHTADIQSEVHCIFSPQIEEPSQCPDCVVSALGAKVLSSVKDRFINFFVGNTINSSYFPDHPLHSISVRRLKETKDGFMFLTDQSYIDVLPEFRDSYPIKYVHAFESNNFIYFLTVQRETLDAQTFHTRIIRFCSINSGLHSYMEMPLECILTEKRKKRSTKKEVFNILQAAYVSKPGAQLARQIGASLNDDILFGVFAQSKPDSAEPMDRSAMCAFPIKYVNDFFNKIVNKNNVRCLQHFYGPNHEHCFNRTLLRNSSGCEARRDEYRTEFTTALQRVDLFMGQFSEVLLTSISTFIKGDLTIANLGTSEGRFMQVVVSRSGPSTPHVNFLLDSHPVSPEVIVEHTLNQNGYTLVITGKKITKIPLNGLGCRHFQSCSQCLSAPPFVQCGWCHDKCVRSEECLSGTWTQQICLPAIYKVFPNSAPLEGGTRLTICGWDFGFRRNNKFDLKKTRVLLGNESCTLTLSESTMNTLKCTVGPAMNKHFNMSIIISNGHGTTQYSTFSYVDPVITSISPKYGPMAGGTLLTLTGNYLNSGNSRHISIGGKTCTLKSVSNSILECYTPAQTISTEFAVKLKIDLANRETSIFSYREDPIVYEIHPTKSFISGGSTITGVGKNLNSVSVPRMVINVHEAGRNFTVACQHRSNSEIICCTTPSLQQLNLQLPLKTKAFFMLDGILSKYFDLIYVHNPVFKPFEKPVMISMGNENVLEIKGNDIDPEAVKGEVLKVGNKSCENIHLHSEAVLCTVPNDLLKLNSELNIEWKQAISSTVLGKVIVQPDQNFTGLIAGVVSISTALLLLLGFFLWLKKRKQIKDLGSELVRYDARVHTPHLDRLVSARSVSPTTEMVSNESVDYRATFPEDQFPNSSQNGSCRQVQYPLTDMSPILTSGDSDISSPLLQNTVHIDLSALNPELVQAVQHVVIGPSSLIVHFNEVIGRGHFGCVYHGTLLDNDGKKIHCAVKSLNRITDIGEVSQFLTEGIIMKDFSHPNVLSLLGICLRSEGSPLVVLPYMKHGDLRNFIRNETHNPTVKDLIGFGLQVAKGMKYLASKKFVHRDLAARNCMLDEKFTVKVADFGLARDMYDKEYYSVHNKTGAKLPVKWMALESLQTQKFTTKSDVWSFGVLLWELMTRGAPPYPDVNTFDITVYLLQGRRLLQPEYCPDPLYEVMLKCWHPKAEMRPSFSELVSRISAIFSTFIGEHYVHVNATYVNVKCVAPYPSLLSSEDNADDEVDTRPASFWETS
Method: as §5, §6, §7, §8, §9, §10, §11

EGFR [6] = biological target: T2, EGFR; experiment: DiscoverX KINOMEscan competition binding assay; conditions: compound 10 µM; lower values = higher affinity; below 35% = significant binding
Method: as §5, §6, §7, §8, §9, §10, §11

BRAF [7] = biological target: T3, BRAF; experiment: DiscoverX KINOMEscan competition binding assay; conditions: compound 10 µM, lower values = higher affinity, below 35% = significant binding
Method: as §5, §6, §7, §8, §9, §10, §11

VEGFR2 = biological target: T8, VEGFR2 (Homo sapiens, UniProt P35968); experiment: DiscoverX KINOMEscan competition binding assay; conditions: compound 10 µM, lower values = higher affinity, below 35% = significant binding
T8 construct: purchased DiscoverX (KINOMEscan service); host or cells: E. coli BL21-derived host (T7 phage) or HEK-293
T8 sequence (P35968 20-1356): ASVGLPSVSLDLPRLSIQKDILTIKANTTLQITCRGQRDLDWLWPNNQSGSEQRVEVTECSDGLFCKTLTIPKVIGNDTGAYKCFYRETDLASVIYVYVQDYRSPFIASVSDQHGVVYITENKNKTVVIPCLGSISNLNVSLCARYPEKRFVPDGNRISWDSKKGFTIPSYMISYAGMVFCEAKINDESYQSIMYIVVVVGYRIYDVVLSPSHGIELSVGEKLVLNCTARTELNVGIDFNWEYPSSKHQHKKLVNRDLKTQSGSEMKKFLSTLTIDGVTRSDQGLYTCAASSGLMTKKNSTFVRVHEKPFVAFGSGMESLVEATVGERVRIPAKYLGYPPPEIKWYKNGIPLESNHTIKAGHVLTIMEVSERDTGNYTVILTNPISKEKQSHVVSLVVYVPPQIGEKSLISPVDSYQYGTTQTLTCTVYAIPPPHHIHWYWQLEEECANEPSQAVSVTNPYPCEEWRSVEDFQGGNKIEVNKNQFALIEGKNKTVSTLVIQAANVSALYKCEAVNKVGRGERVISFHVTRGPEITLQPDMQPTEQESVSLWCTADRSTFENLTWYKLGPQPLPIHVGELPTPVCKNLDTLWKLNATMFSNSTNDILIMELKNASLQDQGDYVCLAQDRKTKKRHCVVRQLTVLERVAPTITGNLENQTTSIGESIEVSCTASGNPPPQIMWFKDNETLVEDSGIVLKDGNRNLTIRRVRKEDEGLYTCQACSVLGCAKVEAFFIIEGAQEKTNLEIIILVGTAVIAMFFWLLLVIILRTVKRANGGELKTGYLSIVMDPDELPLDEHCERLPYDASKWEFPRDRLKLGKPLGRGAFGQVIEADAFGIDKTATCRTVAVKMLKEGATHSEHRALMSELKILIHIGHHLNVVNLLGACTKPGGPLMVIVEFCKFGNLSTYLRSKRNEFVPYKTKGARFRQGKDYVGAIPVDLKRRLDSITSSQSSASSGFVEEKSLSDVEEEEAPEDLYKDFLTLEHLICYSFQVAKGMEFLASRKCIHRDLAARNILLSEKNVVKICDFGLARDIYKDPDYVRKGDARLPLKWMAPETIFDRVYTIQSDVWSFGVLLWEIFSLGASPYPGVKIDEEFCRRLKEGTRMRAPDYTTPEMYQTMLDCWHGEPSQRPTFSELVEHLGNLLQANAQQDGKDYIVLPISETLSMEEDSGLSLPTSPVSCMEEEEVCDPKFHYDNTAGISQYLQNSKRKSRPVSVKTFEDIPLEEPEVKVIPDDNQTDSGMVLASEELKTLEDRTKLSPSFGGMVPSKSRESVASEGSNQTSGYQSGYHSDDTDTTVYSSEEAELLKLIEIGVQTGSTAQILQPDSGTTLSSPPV
Method: as §5, §6, §7, §8, §9, §10, §11

CDK2 = biological target: T9, CDK2 (Homo sapiens, UniProt P24941); experiment: DiscoverX KINOMEscan competition binding assay; conditions: compound 10 µM; lower values = higher affinity; below 35% = significant binding
T9 construct: purchased DiscoverX (KINOMEscan service); host or cells: E. coli BL21-derived host (T7 phage) or HEK-293
Method: as §5, §6, §7, §8, §9, §10, §11

ErbB2 [8] = biological target: T4, ErbB2; experiment: DiscoverX KINOMEscan competition binding assay; conditions: compound 10 µM, lower values = higher affinity, below 35% = significant binding
Method: as §5, §6, §7, §8, §9, §10, §11

Structure (SMILES)	% inhibition of control activity, PI3K (Eurofins) (PI3K [1])	% inhibition of control activity, EGFR (Eurofins) (EGFR [2])	% inhibition of control activity, BRAF (Eurofins) (BRAF [3])	% inhibition of control activity, ErbB2 (Eurofins) (ErbB2 [4])	% control, PI3K (DiscoverX) (PI3K [5]) [% control]	% control, LCK (DiscoverX) (LCK) [% control]	% control, p38α (DiscoverX) (p38α) [% control]	% control, MET (DiscoverX) (MET) [% control]	% control, EGFR (DiscoverX) (EGFR [6]) [% control]	% control, BRAF (DiscoverX) (BRAF [7]) [% control]	% control, VEGFR2 (DiscoverX) (VEGFR2) [% control]	% control, CDK2 (DiscoverX) (CDK2) [% control]	% control, ErbB2 (DiscoverX) (ErbB2 [8]) [% control]	% control, BRAF (DiscoverX) (BRAF [7]; listed as K001MM009) [% control]	% control, VEGFR2 (DiscoverX) (VEGFR2; listed as K001MM009) [% control]	% control, ErbB2 (DiscoverX) (ErbB2 [8]; listed as K001MM009) [% control]
Cc1ccc(-n2cnnn2)cc1NC(=O)NC1CC1 [DS44245]	1.8 (4.4) % inhibition	2.4 (14.7) % inhibition	-13.7 (10.5) % inhibition	-3.4 (1.0) % inhibition	100	100	100	90	100	99	98	100	100			
O=C(Cn1cnc2c(cnn2CCO)c1=O)NCc1ccccc1 [DS05168]	-1 (1.6) % inhibition	11.1 (1.8) % inhibition	-12.4 (10.9) % inhibition	2.8 (1.6) % inhibition	100	95	100	94	100	98	100	99	100			
Cc1ccc(-n2cnnn2)cc1NC(=O)NCC1CC1 [DS44738]	0.4 (1.7) % inhibition	4.4 (14.0) % inhibition	-20.8 (0.4) % inhibition	10.5 (23.6) % inhibition	94	100	100	84	100	100	100	100	91	96	98	98
Cc1[nH]c2nc3c(c(=O)n(Cc4ccccc4)c(=O)n3C)n2c1C [DS62156]	1.5 (5.8) % inhibition	16.6 (0.4) % inhibition	-6.3 (1.6) % inhibition	3.1 (3.3) % inhibition	66	100	97	87	90	95	100	100	96			

The remaining lines, values ahead:

% inhibition of control activity, PI3K (Eurofins) (PI3K [1])	% inhibition of control activity, EGFR (Eurofins) (EGFR [2])	% inhibition of control activity, BRAF (Eurofins) (BRAF [3])	% inhibition of control activity, ErbB2 (Eurofins) (ErbB2 [4])	% control, PI3K (DiscoverX) (PI3K [5]) [% control]	% control, LCK (DiscoverX) (LCK) [% control]	% control, p38α (DiscoverX) (p38α) [% control]	% control, MET (DiscoverX) (MET) [% control]	% control, EGFR (DiscoverX) (EGFR [6]) [% control]	% control, BRAF (DiscoverX) (BRAF [7]) [% control]	% control, VEGFR2 (DiscoverX) (VEGFR2) [% control]	% control, CDK2 (DiscoverX) (CDK2) [% control]	% control, ErbB2 (DiscoverX) (ErbB2 [8]) [% control]	% control, BRAF (DiscoverX) (BRAF [7]; listed as K001MM009) [% control]	% control, VEGFR2 (DiscoverX) (VEGFR2; listed as K001MM009) [% control]	% control, ErbB2 (DiscoverX) (ErbB2 [8]; listed as K001MM009) [% control]	Structure (SMILES)
22.1 (2.3) % inhibition	23.3 (4.2) % inhibition	-44.9 (24.1) % inhibition	-8.3 (1.2) % inhibition	100	90	81	95	100	100	100	100	100				Cc1ccc(/C=C2\N=C(c3cccc(S(=O)(=O)N(C)C)c3)OC2=O)s1 [DS74871]
0.7 (0.8) % inhibition	23.4 (0.6) % inhibition	-8.2 (13.6) % inhibition	0.2 (2.8) % inhibition	100	100	90	95	100	100	100	100	97				CC(=O)c1cc(CC(=O)N(C)C[C@H]2CCCCO2)cs1 [DS84326]
3.6 (2.3) % inhibition	12.6 (1.9) % inhibition	-18.5 (1.8) % inhibition	-1.4 (0.8) % inhibition	89	100	93	100	92	83	100	100	90				CCOCCCNC(=O)c1nc2c3c4c(sc3ncn2n1)CC[C@@H](C)C4 [DS82066]
4.6 (7.7) % inhibition	14.5 (8.6) % inhibition	-18.7 (11.9) % inhibition	-2.5 (1.6) % inhibition	100	100	100	92	100	100	100	100	96				COCCCNC(=O)c1nc2c3c4c(sc3ncn2n1)CCC[C@H]4C [DS66846]
